Assay results published in article PMC10818546, “CYP1-Activation and Anticancer Properties of Synthetic Methoxylated Resveratrol Analogues” (Molecules, 2024).
Read-outs that look alike come from different tables or passages of the source.

Experiments:
MCF7 (TCDD) = test: MTT cytotoxicity assay, TCDD-induced MCF7 cells; type: cell-based, human; settings: for AF = activation factor = IC50 MCF7/MCF7 (TCDD): ratio of IC50 values
Description: (§1) The antiproliferative activity of the resveratrol analogues was investigated using a human breast cell line panel, which has been characterised for CYP1 expression in our laboratories. IC50 values for both cis- and trans-isomers were determined using a standard 3-[4,5-dimethylthiazol-2-yl]-2,5-diphenyl tetrazolium bromide (MTT) cell viability assay and are shown in Table 1 (trans-stilbene analogues) and Table 2 (cis-stilbene analogues).
(§2) MCF7 cells are both ER positive and Ah receptor positive and have been well documented for their CYP1 expression, and it is known that treatment with TCDD elevates CYP1A1 and CYP1B1 expression. The cells were treated with DMSO (0.1%) for 24 h for constitutive expression, whereas for inducible CYP1 expression, the cells were treated with TCDD (10 nM) for 24 h.
(§3) A standard MTT (3-[4,5-dimethylthiazol-2-yl]-2,5-diphenyl tetrazolium bromide) cell viability assay was employed to evaluate the cytotoxicity of the stilbenes prepared. The MTT assay is a rapid quantitative spectrophotometric method for determining cell growth (viability) due to necrosis or apoptosis in monolayer-cultured cell lines in response to external factors. It is widely employed to evaluate the cytotoxicity of potential medicinal agents.
(§4) MCF7 cells were grown in RPMI-1640 medium with phenol red and 10% (v/v) heat-inactivated (heated to 56 °C for 45 min) foetal calf serum. MDA-468 cells were grown in RPMI-1640 medium with 10% (v/v) heat-inactivated foetal calf serum and L-glutamine (2 mM) without phenol red. MCF-10A cells were grown in Dulbecco’s modified Eagle’s medium/ Ham’s F-12 medium (1:1) with 5% (v/v) heat-inactivated foetal calf serum, epidermal growth factor (20 ng/mL), insulin ([…]) and hydrocortisone (500 ng/mL). Cells were maintained at 37 °C, 5% CO2/95% air with 100% humidity and passaged every 2–3 days using trypsin EDTA solution (0.25% w/v). Adhered cells at sub confluence were harvested for experimental use.
(§5) Aliquots of cell suspensions (100 µL at 2 × 10^3 cells per ml) were dispensed into sterile 96-well microtiter flat-bottomed plates. For the MDA468 and MCF10A cell lines, the plates were incubated at 37 °C, 5% CO2/95% air with 100% humidity for 24 h prior to the addition of test compounds. For MCF7 cells, after allowing approximately 4 h for cells to adhere, 100 µL of medium containing TCDD (from 100 mM stock in DMSO) or medium with 0.2% (v/v) DMSO was added to give a final concentration of 10 nM TCDD and 0.1% (v/v) DMSO. After 24 h, the medium was aspirated and replaced with fresh medium (100 µL) before the addition of test compounds.
(§6) Then, 100 µL aliquots of test compounds were added within 30 min into the wells from a 100 mM stock solution in DMSO and serially diluted to give final concentrations of […], 0.01, 0.003, 0.001 and 0.0003 µM. […] The cells were allowed to grow for 96 h at 5% CO2, 37 °C, to give 80–90% confluence in the control wells, after which 50 µL of 2 mg/mL MTT (final concentration 0.4 mg/mL) in sterile phosphate buffer was added to each well and the plates were further incubated for 2 h. All medium was aspirated and the formazan precipitate generated by viable cells was solubilised by 150 µL of DMSO. All the plates were vortexed and the absorbance at 540 nm was determined using a SpectraMax M5 plate reader (Molecular Devices, Wokingham, UK).
(§7) Results were expressed as a percentage of the control value versus the negative logarithm of the molar drug concentration range using GraphPad Prism (Version 5.00). Relative toxicities of each compound within each cell line were expressed as 50% of growth inhibition (IC50). All determinations were carried out in quadruplicate.

MDA468 = test: MTT cytotoxicity assay, MDA468 cells; type: cell-based, human; settings: for IC50: Homo sapiens, read-out: IC50 MDA468; for TS = tumour selectivity = IC50 MCF10A/IC50 MDA468: ratio of IC50 values
Description: as §1
MDA468 cells represent an aggressive multi-drug-resistant tumour type and are ER negative but are aryl hydrocarbon (Ah) receptor positive in the presence of TCDD [46].
as §3, §4, §5, §6, §7

MCF10A = test: MTT cytotoxicity assay, MCF10A non-tumour control cells; type: cell-based; settings: Homo sapiens, MCF-10A, read-out: IC50 MCF10A
Description: as §1
MCF10A cells are non-tumourigenic human mammary epithelial in origin which have been spontaneously immortalised without chemical intervention. CYP1 activity in MCF10A cells is negligible. […] Thus, MCF10A cell line is commonly used as a control in cytotoxicity assays.
as §3, §4, §5, §6, §7

MCF7 = test: MTT cytotoxicity assay, MCF7 cells (uninduced); type: cell-based, human; settings: read-out: IC50 MCF7
Description: as §1, §2, §3, §4, §5, §6, §7

[1] = Homo sapiens, MCF7, MTT assay, 96 h incubation, cells induced with 10 nM TCDD for 24 h, read-out: IC50 MCF7 (TCDD)
[2] = 96 h, MTT assay, 96 h incubation, non-tumour control cells
[3] = Homo sapiens, MCF7, 96 h, MTT assay, 96 h incubation, 37 °C, means of quadruplicate
[4] = MTT assay, 96 h incubation, non-tumour control cells
[5] = Homo sapiens, MCF7, MTT assay, 96 h incubation, 37 °C, means of quadruplicate

| SMILES | IC50 (MCF7 (TCDD); [1]) | IC50 (MDA468; MTT assay, 96 h incubation) | TS = tumour selectivity = IC50 MCF10A/IC50 MDA468 (MDA468) | IC50 (MCF10A; [2]) | IC50 (MCF7; [3]) | IC50 (MCF10A; [4]) | IC50 (MCF7; [5]) | also measured |
| --- | --- | --- | --- | --- | --- | --- | --- | --- |
| COc1ccc(/C=C\c2cc(OC)c(OC)c(OC)c2)cc1O [CA4, combretastatin A4, reference compound] | 0.002 µM | 3 nM | 0.7 | 0.002 µM | 0.002 µM | – | – | – |
| COc1ccc(/C=C/c2ccc(OC)cc2)cc1 [DMU205] | 28 µM | 100000 nM | 1 | 100 µM | 28 µM | – | – | – |
| COc1ccc(/C=C\c2cc(OC)cc(OC)c2)cc1 [DMU210] | 24 µM | > 100000 nM | – | – | – | > 100 µM | 26 µM | – |
| COc1ccc(/C=C\c2cc(OC)c(OC)c(OC)c2)cc1 [DMU213] | – | – | four | – | – | – | – | IC50 (MCF7 (TCDD); Homo sapiens, MCF7, read-out: IC50 MCF7 (TCDD)): 0.44 µM; fold less toxic to MDA-468 compared to DMU212 (MDA468): 500 fold; IC50 (MDA468; 96 h): 500 nM; TS = tumour selectivity = IC50 MCF10A/IC50 MDA468 (MDA468; listed as 213): 4; IC50 (MCF10A; 96 h): 2 µM; IC50 (MCF7; Homo sapiens, MCF7, 96 h): 2.5 µM |
| COc1ccc(/C=C\c2cccc(C)c2)cc1 [DMU216C] | 30 µM | > 100000 nM | – | > 100 µM | 26 µM | – | – | – |
| COc1ccc(/C=C/c2cc(OC)c(OC)c(OC)c2)c(OC)c1 [DMU219] | 1.4 µM | 800 nM | 2 | 1.4 µM | 1.7 µM | – | – | – |
| COc1cc(/C=C/c2ccc3c(c2)OCO3)cc(OC)c1OC [DMU220] | 2.3 µM | 990 nM | four | – | – | 3.9 µM | 3.4 µM | TS = tumour selectivity = IC50 MCF10A/IC50 MDA468 (MDA468; listed as 220): 4 |
| COc1ccc(/C=C\c2cc(OC)c(OC)c(OC)c2)c(OC)c1 [DMU222] | 0.005 µM | 5 nM | 10 | 0.06 µM | 0.06 µM | – | – | IC50 (MCF7 (TCDD); MTT assay, 96 h incubation, cells induced with 10 nM TCDD for 24 h, read-out: IC50 MCF7 (TCDD)): 0.007 µM; IC50 (MCF7; MTT assay, 96 h incubation, 37 °C, means of quadruplicate): 0.07 µM |
| COc1ccc(CCc2cc(OC)c(OC)c(OC)c2)cc1 [DMU224] | 0.06 µM | 5 nM | – | 0.06 µM | 0.06 µM | – | – | – |
| COc1ccc(/C=C\c2cccc(OC)c2)cc1 [DMU241C] | 26 µM | > 100000 nM | – | – | – | > 100 µM | 29 µM | – |
| COc1ccc(/C=C/c2cccc(OC)c2)cc1 [DMU241] | 24 µM | > 100000 nM | – | – | – | > 100 µM | 27 µM | – |
| CCOc1ccc(/C=C/c2cc(OC)c(OC)c(OC)c2)cc1 [DMU260] | 5 µM | 1800 nM | two | – | – | 3.7 µM | 5 µM | AF = activation factor = IC50 MCF7/MCF7 (TCDD) (MCF7 (TCDD)): one; TS = tumour selectivity = IC50 MCF10A/IC50 MDA468 (MDA468; listed as 260): 2 |
| CCOc1ccc(/C=C\c2cc(OC)c(OC)c(OC)c2)cc1 [DMU261] | 0.13 µM | 70 nM | 0.9 | – | – | 0.06 µM | 0.04 µM | – |
| COc1ccc(/C=C\c2ccc(OC)cc2)cc1 [DMU265] | 20 µM | > 100000 nM | – | > 100 µM | 25 µM | – | – | – |
| COc1ccc(/C=C/c2cc(OC)cc(OC)c2)cc1 [DMU271] | 14 µM | > 100000 nM | – | – | – | > 100 µM | 14 µM | – |
| COc1cc(/C=C/c2ccc(O)cc2)cc(OC)c1OC [DMU281] | 28 µM | 3600 nM | 6 | 23 µM | 30 µM | – | – | – |
| COc1ccc(/C=C/c2cc(OC)c(O)c(OC)c2)cc1 [DMU291] | 20 µM | 1000 nM | 100 | 100 µM | 20 µM | – | – | – |
| COc1ccc(/C=C/c2cc(OC)c(O)c(OC)c2)cc1O [DMU293] | 100 µM | 10000 nM | 10 | 110 µM | 100 µM | – | – | – |
| COc1cc(/C=C/c2ccc(O)cc2)cc(OC)c1O [DMU295] | 4.2 µM | 5100 nM | 10 | 51 µM | 50 µM | – | – | – |
| COc1cc(/C=C\c2ccc3c(c2)OCO3)cc(OC)c1OC [DMU299] | 0.05 µM | 20000 nM | one | – | – | 20 µM | 0.05 µM | AF = activation factor = IC50 MCF7/MCF7 (TCDD) (MCF7 (TCDD)): one; TS = tumour selectivity = IC50 MCF10A/IC50 MDA468 (MDA468; listed as 299): 1 |
| COc1cc(/C=C/c2ccc(I)cc2)cc(OC)c1OC [DMU509] | 15 µM | 13000 nM | 1 | 13 µM | 15 µM | – | – | – |
| COc1cc(/C=C\c2ccc(I)cc2)cc(OC)c1OC [DMU510] | 0.06 µM | 6 nM | 2 | 0.01 µM | 0.06 µM | – | – | – |
